From US20260285850A1, “SUBSTITUTED OXAZOLIDINONES AND IMIDAZOLINONES AS HERBICIDES” (FMC CORPORATION, priority 2023, published 2026)

Experiments:
Type in all cases: in vivo
[1] = tested on: oat, wild (wild oat, Avena fatua); assay: Test A preemergence soil spray, visual injury rating 0-100; details: 10 days, 0 = no effect, 100 = complete control
Outline: (§1)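 Loam-sand pots got test material in surfactant-containing solvent, either as a directed soil spray before emergence or on plants at the one- to two-leaf stage. Visual injury (0-100) was read after ten greenhouse days.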

[2] = tested on: palmer (palmer amaranth, palmer pigweed, Amaranthus palmeri); assay: as above; details: 10 days, 0 = no effect, 100 = complete control
Outline: as §1

[3] = tested on: ragweed (common ragweed, Ambrosia artemisiifolia); assay: as above; details: 10 days, 0 = no effect, 100 = complete control
Outline: as §1

corn (Zea mays) [4] = assay: as above; details: 10 days, 0 = no effect, 100 = complete control
Outline: as §1

[5] = tested on: blackgrass (Alopecurus myosuroides); assay: as above; details: 10 days, 0 = no effect, 100 = complete control
Outline: as §1

soybean (Glycine max) [6] = assay: as above; details: 10 days, 0 = no effect, 100 = complete control
Outline: as §1

[7] = tested on: barnyardgrass (Echinochloa crus-galli); assay: as above; details: 10 days, 0 = no effect, 100 = complete control
Outline: as §1

[8] = tested on: ryegrass, Italian (italian ryegrass, Lolium multiflorum); assay: as above; details: 10 days, 0 = no effect, 100 = complete control
Outline: as §1

[9] = tested on: green foxtail (Setaria viridis); assay: as above; details: 10 days, 0 = no effect, 100 = complete control
Outline: as §1

[10] = tested on: wheat (Triticum aestivum); assay: as above; details: 10 days, 0 = no effect, 100 = complete control
Outline: as §1

kochia (Bassia scoparia) [11] = assay: as above; details: 10 days, 0 = no effect, 100 = complete control
Outline: as §1

[12] = tested on: barnyardgrass (Echinochloa crusgalli); assay: Test B flooded paddy test, visual plant response rating 0-100; details: 250 g ai/ha, Flood, applied to paddy water, evaluated after 13 days
Outline: (§2)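 Plants were grown to the 2-leaf stage, then pots were flooded to 3 cm above the soil and test compounds were applied directly into the paddy water. Water depth was held there throughout; after 13 days in a greenhouse, injury was scored visually against untreated controls.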

[13] = tested on: ducksalad (Heteranthera limosa); assay: as above; details: 250 g ai/ha, Flood, applied to paddy water, evaluated after 13 days
Outline: as §2

[14] = tested on: sedge, umbrella (small-flower umbrella sedge, Cyperus difformis); assay: as above; details: 250 g ai/ha, Flood, applied to paddy water, evaluated after 13 days
Outline: as §2

rice (Oryza sativa) = assay: as above; details: 250 g ai/ha, Flood, applied to paddy water, evaluated after 13 days
Outline: as §2

[15] = tested on: oat, wild (wild oat, Avena fatua); assay: Test A postemergence application, visual injury rating 0-100; details: 10 days
Outline: as §1

[16] = tested on: palmer (palmer amaranth, palmer pigweed, Amaranthus palmeri); assay: as above; details: 10 days
Outline: as §1

[17] = tested on: ragweed (common ragweed, Ambrosia artemisiifolia); assay: as above; details: 10 days
Outline: as §1

corn (Zea mays) [18] = assay: as above; details: 10 days
Outline: as §1

[19] = tested on: blackgrass (Alopecurus myosuroides); assay: as above; details: 10 days
Outline: as §1

soybean (Glycine max) [20] = assay: as above; details: 10 days
Outline: as §1

[21] = tested on: barnyardgrass (Echinochloa crus-galli); assay: as above; details: 10 days
Outline: as §1

[22] = tested on: ryegrass, Italian (italian ryegrass, Lolium multiflorum); assay: as above; details: 10 days
Outline: as §1

[23] = tested on: galium (catchweed bedstraw, Galium aparine); assay: as above; details: 10 days
Outline: as §1

[24] = tested on: green foxtail (Setaria viridis); assay: as above; details: 10 days
Outline: as §1

[25] = tested on: wheat (Triticum aestivum); assay: as above; details: 10 days
Outline: as §1

[26] = tested on: horseweed (Erigeron canadensis); assay: as above; details: 10 days
Outline: as §1

kochia (Bassia scoparia) [27] = assay: as above; details: 10 days
Outline: as §1

[28] = 31 g ai/ha, postemergence, 0 = no effect, 100 = complete control
[29] = Postemergence, 125 g ai/ha, 0 is no effect, 100 is complete control

COC(=O)C1=CCC(NC(=O)C2(C)CN(c3cc(F)cc(F)c3)C(=O)O2)C1 (single isomer, unassigned) [Compound 20]
100: Corn plant response rating (0 to 100 scale) (corn (Zea mays) [18]; [29])
20: Soybean plant response rating (0-100) (soybean (Glycine max) [6]; 31 g ai/ha) | Ryegrass, Italian plant response rating (0 to 100 scale) ([8]; 125 g ai/ha) | Wheat plant response rating (0 to 100 scale) ([10]; 125 g ai/ha) | Oat, Wild plant response rating (0-100) [15, 28] | Galium plant response rating (0-100) [23, 28] | Foxtail, Green plant response rating (0-100) [24, 28]
50: Soybean plant response rating (0-100) (soybean (Glycine max) [20]; [28]) | Kochia plant response rating (0 to 100 scale) (kochia (Bassia scoparia) [27]; [29])
80: Ryegrass, Italian plant response rating (0 to 100 scale) [22, 29] | Galium plant response rating (0 to 100 scale) [23, 29] | Foxtail, Green plant response rating (0 to 100 scale) [24, 29] | Wheat plant response rating (0 to 100 scale) [25, 29]
40: Corn plant response rating (0-100) (corn (Zea mays) [18]; [28])
90: Soybean plant response rating (0 to 100 scale) (soybean (Glycine max) [20]; [29]) | Barnyardgrass plant response rating (0 to 100 scale) [21, 29]
60: Soybean plant response rating (0 to 100 scale) (soybean (Glycine max) [6]; 125 g ai/ha) | Oat, Wild plant response rating (0 to 100 scale) [15, 29] | Blackgrass plant response rating (0 to 100 scale) [19, 29]
0: Oat, Wild plant response rating (0-100) ([1]; 31 g ai/ha) | Oat, Wild plant response rating (0 to 100 scale) ([1]; 125 g ai/ha) | Amaranth, Palmer plant response rating (0-100) ([2]; 31 g ai/ha) | Amaranth, Palmer plant response rating (0 to 100 scale) ([2]; 125 g ai/ha) | Ragweed plant response rating (0 to 100 scale) ([3]; 125 g ai/ha) | Corn plant response rating (0-100) (corn (Zea mays) [4]; 31 g ai/ha) | Corn plant response rating (0 to 100 scale) (corn (Zea mays) [4]; 125 g ai/ha) | Blackgrass plant response rating (0-100) ([5]; 31 g ai/ha) | Blackgrass plant response rating (0 to 100 scale) ([5]; 125 g ai/ha) | Barnyardgrass plant response rating (0-100) ([7]; 31 g ai/ha) | Barnyardgrass plant response rating (0 to 100 scale) ([7]; 125 g ai/ha) | Ryegrass, Italian plant response rating (0-100) ([8]; 31 g ai/ha) | Foxtail, Green plant response rating (0-100) ([9]; 31 g ai/ha) | Foxtail, Green plant response rating (0 to 100 scale) ([9]; 125 g ai/ha) | Wheat plant response rating (0-100) ([10]; 31 g ai/ha) | Kochia plant response rating (0-100) (kochia (Bassia scoparia) [11]; 31 g ai/ha) | Kochia plant response rating (0 to 100 scale) (kochia (Bassia scoparia) [11]; 125 g ai/ha) | Plant response rating, Barnyardgrass (0 to 100 scale, 0 is no effect and 100 is complete control) [12] | Plant response rating, Ducksalad (0 to 100 scale, 0 is no effect and 100 is complete control) [13] | Plant response rating, Sedge, Umbrella (0 to 100 scale, 0 is no effect and 100 is complete control) [14] | Plant response rating, Rice (0 to 100 scale, 0 is no effect and 100 is complete control) (rice (Oryza sativa)) | Amaranth, Palmer plant response rating (0-100) [16, 28] | Ragweed plant response rating (0-100) [17, 28] | Blackgrass plant response rating (0-100) [19, 28] | Barnyardgrass plant response rating (0-100) [21, 28] | Ryegrass, Italian plant response rating (0-100) [22, 28] | Wheat plant response rating (0-100) [25, 28] | Horseweed plant response rating (0-100) [26, 28] | Horseweed plant response rating (0 to 100 scale) [26, 29] | Kochia plant response rating (0-100) (kochia (Bassia scoparia) [27]; [28])
30: Ragweed plant response rating (0-100) ([3]; 31 g ai/ha) | Amaranth, Palmer / Pigweed, Palmer plant response rating (0 to 100 scale) [16, 29] | Ragweed plant response rating (0 to 100 scale) [17, 29]
